Values quoted from earlier work, collected in article PMC9290462 (British Journal of Clinical Pharmacology, 2020).

Tests used:
[1] = test system: patients with moderate‐to‐severe SLE

alanine aminotransferase, aspartate aminotransferase and lipase	bleeding events (healthy volunteers)	Structure (SMILES)	tolerability (healthy volunteers)	primary efficacy endpoint [1]
associated with increases	–	C=CC(=O)N1CCC(CNc2ncnc(N)c2-c2ccc(Oc3ccccc3)cc2)CC1 [Evobrutinib, evobrutinib]	–	–
associated with increases	–	Cc1c(-c2c(F)cc(C(N)=O)c3[nH]c4c(c23)CC[C@H](C(C)(C)O)C4)cccc1-n1c(=O)c2cccc(F)c2n(C)c1=O [BMS‐986142]	–	–
–	no reported bleeding events	C[C@H]1CN(C2COC2)CCN1c1ccc(Nc2cc(-c3ccnc(N4CCn5c(cc6c5CC(C)(C)C6)C4=O)c3CO)cn(C)c2=O)nc1 [fenebrutinib]	well tolerated	failed to meet its primary efficacy endpoint
